Test results taken from patent US12358959B2, “Compositions and methods for oligodendrocyte development” (CHILDREN'S MEDICAL CENTER CORPORATION, priority 2016, dated 2025).

Experiments:
[1] = tested on: oligodendrocyte precursors (OPCs); assay: OPC proliferation on laminin-111 or fibronectin with recombinant TG2; assay type: cell-based, mouse
Description: P=0.70 (control vs. TG2-W241A); **P=0.0088 (TG2 vs. TG2-W241A). […] FIG. 16D depicts a Western blot of active RhoA (top panel) and total RhoA (bottom panel) in the corpus callosum (CC) of Tgm2^+/+ and Tgm2^−/− mice. FIG. 16E is a graph showing that the relative level of active RhoA to total RhoA was diminished in the CC of Tgm2^−/− mice compared to […]. *P=0.0207, unpaired t-test, N=3 per genotype. FIG. 16F depicts a Western blot of GPR56^N in the supernatant of HEK 293T cell culture after exposed to either TG2 or TG2+laminin-111 (top panel), GTP-RhoA (middle panel) and total RhoA (lower panel) in HEK 293T cell pellet exposed to either TG2 or TG2+laminin-111. FIG. 16G is a graph showing that released GPR56 NTF was increased in the presence of both TG2 and laminin-111. ***P=0.0002; One-way ANOVA followed by Tukey post-hoc test, F (2,6)=49.66, n.s. P=0.95 (control vs. TG2); ***P=0.0003 (control vs. TG2+laminin-111); ***P=0.0004 (TG2 vs. TG2+laminin-111); N=3 per treatment group. FIG. 16H is a graph showing that the relative level of GTP-RhoA to total RhoA was increased in the presence of both TG2 and laminin-111, corresponding to the increased GPR56 NTF in the supernatant. **P=0.0028; One-way ANOVA followed by Tukey post-hoc test, F (2,6)=18.19, n.s. P=0.75 (control vs. TG2); **P=0.0035 (control vs. TG2+laminin-111); **P=0.0071 (TG2 vs. TG2+laminin-111) N=3 per treatment group. Error bars are mean±s.e.m in FIGS. 16E, 16G, and 16H.
To establish conditions for mechanistic investigation of the function of TG2 on OPC GPR56 during myelination and remyelination, in vitro experiments were performed with wt and Gpr56^−/− oligodendrocyte precursors (OPCs) and human recombinant TG2. […] TG2 is an extracellular protein with intrinsic transamidation activity, capable of cross-linking ECM proteins, including laminin-111 (Aeschlimann et al., J Biol Chem 267, 11316-11321, 1992; Belkin, FEBS J 278, 4704-4716, 2011). […] To confirm that TG2 regulates OPC proliferation in a GPR56-dependent manner, OPCs derived from P5 Gpr56^+/+ or Gpr56^−/− pups were cultured in the presence of laminin-111, with or without recombinant TG2. TG2-associated proliferation was attenuated in Gpr56^−/− OPCs (FIG. 16C), further supporting a GPR56-dependent TG2 function on OPC proliferation.
Oligodendrocyte precursor cells (OPCs) were isolated from mixed male and female P5-8 Gpr56^+/+ or Gpr56^−/− mouse forebrains as previously described (Wang et al., Neuron 29, 603-614, 2001; Watkins et al., Neuron 60, 555-569, 2008). Briefly, OPCs were purified by negatively selecting with mouse anti-Thy 1.2 (Serotec, Cat #MCA02R) and mouse anti-GalC (Millipore, Cat #MAB342), followed by mouse anti-04 (04 hybridoma supernatant) for positive selection. After releasing OPCs from the 04 plate by trypsinization, cells were resuspended in proliferation media containing PDGF-AA and NT-3 (PreproTech). OPCs were plated on coverslips coated with poly-D-lysine before coating with laminin I (R&D Systems, Cat #3400-010-01) or fibronectin (Millipore, Cat #341668) as previously described (Dugas et al., J Neurosci 26, 10967-10983, 2006). After 24 hr, TG2 (2 nM) was added to the cultures and incubated for an additional 24 hr before fixation with 4% PFA and staining for PDGFRα and Ki67.

RhoA = assay: GTP-Rho pull-down assay in HEK 293T cell pellets; assay type: cell-based; conditions: 10 min, HEK 293T transfected with mouse Gpr56
Experimental: HEK 293T cells were transiently transfected with mouse Gpr56 cDNA. Twenty-four hours after transfection, the cells were subject to serum starvation for 36 hr followed by the addition of recombinant TG2 250 nM with/without recombinant laminin-111 12.5 nM, or acetic acid as control for 10 min. The conditioned media were harvested, filtered, and concentrated as previously described. Equal volumes of the concentrated media were used for Western blot (Luo et al., PLOS One 9, e100043, 2014), while the cell pellets were used for GTP-Rho pull-down assay.
The corpus callosums (CCs) were dissected under a Leica stereo microscope (MZ 6; Leica™ Pte Ltd.), followed by washes in PBS and lysis in ice-cold RIPA buffer (1% Nonidet P-40, 50 mM Tris pH 7.6, 120 mM NaCl, 1 mM EDTA) containing protease inhibitor cocktail set 1 (Calbiochem). The lysates were cleared of insoluble materials by centrifugation at 16,000×g for 10 min at 4° C. Protein concentration was determined by a Bio-Rad protein assay method (Bio-Rad) according to the manufacturer's protocol, and equal amounts of protein were used for SDS-PAGE and western blot analysis. The GTP-Rho pull-down assay was performed as previously described (Luo et al., Proc Natl Acad Sci USA 108, 12925-12930, 2011). […] Bound Rho proteins were eluted by Laemmli sample buffer and detected by western blot using mouse monoclonal anti-RhoA antibody (Cytoskeleton).

Transglutaminase 2 [TG2]
OPC proliferation ([1]; Gpr56−/− OPCs, in the presence of laminin-111, with recombinant TG2): attenuated
OPC proliferation ([1]; Gpr56−/− OPCs, in the presence of laminin-111, with recombinant TG2, listed as recombinant TG2): failed to respond
OPC proliferation, wild type TG2 vs enzymatic dead mutant ([1]; versus control, One-way ANOVA, Tukey post-hoc): stimulated OPC proliferation
OPC proliferation ([1]; wt OPCs, basal condition (no laminin-111), TG2 2 nM, 24 hr): failed to augment
OPC proliferation ([1]; wt OPCs, in the presence of laminin-111, TG2 2 nM, 24 hr): stimulated OPC proliferation
OPC proliferation ([1]; wt OPCs, in the presence of laminin-111, TG2 2 nM, 24 hr, listed as recombinant TG2): significantly increased
Relative level of GTP-RhoA to total RhoA (RhoA; TG2 250 nM alone vs control): n.s.
Relative level of GTP-RhoA to total RhoA (RhoA; TG2 250 nM with laminin-111 12.5 nM): activating RhoA downstream signaling
